According to ChEMBL document CHEMBL1154805, “Alternaramide, a cyclic depsipeptide from the marine-derived fungus Alternaria sp. SF-5016” (2009):
Calls of active or inactive are those of the source. The rule behind the calls is not given here.

Tests used:
Staphylococcus aureus [1] = test: Antibacterial activity against Staphylococcus aureus KCTC 1928 at 50 ug/disk after 48 hrs by disk diffusion method; format: functional, organism-based
Bacillus subtilis [2] = test: Antibacterial activity against Bacillus subtilis KCTC 1021 at 5 ug/disk after 48 hrs by disk diffusion method; format: functional, organism-based
Proteus vulgaris = test: Antibacterial activity against Proteus vulgaris KACC 12674 at 400 ug/disk after 48 hrs by disk diffusion method; format: functional, organism-based
Cryptococcus neoformans = test: Antifungal activity against Filobasidiella neoformans KCTC 7003 at 400 ug/disk after 48 hrs by disk diffusion method; format: functional, organism-based
[3] = molecular target: T1, Tyrosine-protein phosphatase non-receptor type 1 (Homo sapiens) (UniProt P18031); test: Inhibition of human recombinant PTP1B assessed as p-nitrophenol release at 150 ug/ml after 30 mins by spectrophotometry
T1 sequence (whole entry): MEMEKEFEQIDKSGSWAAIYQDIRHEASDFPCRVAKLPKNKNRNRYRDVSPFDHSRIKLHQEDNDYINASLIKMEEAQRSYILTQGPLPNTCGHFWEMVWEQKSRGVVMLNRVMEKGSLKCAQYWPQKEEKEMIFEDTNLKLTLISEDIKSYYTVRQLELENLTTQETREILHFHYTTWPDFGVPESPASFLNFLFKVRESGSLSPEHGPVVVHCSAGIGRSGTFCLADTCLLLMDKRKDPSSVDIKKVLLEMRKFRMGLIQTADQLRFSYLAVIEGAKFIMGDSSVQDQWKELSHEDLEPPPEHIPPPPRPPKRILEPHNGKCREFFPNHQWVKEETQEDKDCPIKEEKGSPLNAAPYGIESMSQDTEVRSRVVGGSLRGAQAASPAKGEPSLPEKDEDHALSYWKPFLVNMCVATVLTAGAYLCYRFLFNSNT

Staphylococcus aureus [4] = test: Antibacterial activity against Staphylococcus aureus KCTC 1928 at 400 ug/disk after 48 hrs by disk diffusion method; format: functional; conditions: KCTC 1928, 48 h, read-out: IZ
Bacillus subtilis [5] = test: Antibacterial activity against Bacillus subtilis KCTC 1021 at 400 ug/disk after 48 hrs by disk diffusion method; format: functional; conditions: KCTC 1021, 48 h, read-out: IZ
Candida albicans = test: Antifungal activity against Candida albicans KCTC 7965 at 400 ug/disk after 48 hrs by disk diffusion method; format: functional, organism-based

In the case of GENTAMICIN, the inhibition zone (IZ) (Staphylococcus aureus [1]) is reported as 13 mm and the inhibition zone (IZ) (Bacillus subtilis [2]) is reported as 16 mm.
In the case of CC(C)[C@@H]1OC(=O)[C@@H]2CCCN2C(=O)[C@@H](Cc2ccccc2)NC(=O)[C@@H]2CCCN2C(=O)[C@@H](Cc2ccccc2)NC1=O [ALTERNARAMIDE], the Activity (Proteus vulgaris) is reported as “inactive”, the Activity (Cryptococcus neoformans) is reported as “inactive” and the inhibition [3] is reported as 49%. For the same compound, the zone of inhibition at 400 µg/disc (Staphylococcus aureus [4]) was 13 mm, the zone of inhibition at 400 µg/disc (Bacillus subtilis [5]) was 8 mm and the Activity (Candida albicans) was “inactive”.
